From patent US20080096894A1, “Anti-Bacterial Compounds” (ASTON UNIVERSITY, priority 2005, published 2008)
≈ marks a conversion by molar mass, not a printed value. Like-named read-outs stand apart in the source and are kept apart here.

Key:
S. aureus = assay: MIC, agar dilution, multipoint inoculator; type: cell-based, Staphylococcus aureus; details: upper value of MIC reading
Protocol: (§1) This activity was measured using a multipoint inoculator method as follows. The MIC for each compound was measured using an agar dilution method (Onda, H., et al., Int. J. Antimicrob. Agents. 18, 263 (2001)) (Mueller Hinton agar) by means of a multipoint inoculator delivering 10^4 colony forming units per spot.

E. faecium = assay: MIC, agar dilution, multipoint inoculator; type: cell-based, Enterococcus faecium; details: upper value of MIC reading
Protocol: as §1

S. maltophilia = assay: MIC, agar dilution, multipoint inoculator; type: cell-based; details: S. maltophilia NCTC 10257; upper value of MIC reading
Protocol: as §1

E. faecalis = assay: MIC, agar dilution, multipoint inoculator; type: cell-based; details: upper value of MIC reading
Protocol: as §1

S. haemolyticus = assay: MIC, agar dilution, multipoint inoculator; type: cell-based; details: S. haemolyticus Isolate 1, upper value of MIC reading
Protocol: as §1

S. epidemisis = assay: MIC, agar dilution, multipoint inoculator; type: cell-based, Staphylococcus epidermidis; details: upper value of MIC reading
Protocol: as §1

MRSA = assay: MIC, agar dilution, multipoint inoculator; type: cell-based, methicillin-resistant Staphylococcus aureus
Protocol: as §1
‘Staph’ refers to the reference strain of S. aureus (NCTC 6571). A tick in the MRSA column refers to a positive zone against MRSA strain 96-7474, and the MIC range (in μg/ml) which follows is that found against a panel of ten MRSA strains. Where MIC values are given for MRSA, these are stated as a range of values, as testing was carried out on a panel of clinical isolates.

[1] = system: human mononuclear leucocytes (MNL, white blood cells); assay: direct leucocyte toxicity, tryptan blue exclusion, 18 hours; type: cell-based; details: for % Leucocyte Death: human, 18 h
Protocol: The in vitro assay used human mononuclear leucocytes (MNL, white blood cells) which were incubated with the test compound for 18 hours and cell death determined by tryptan blue exclusion (tryptan blue is a dye, which stains dead cells, whilst living cells extrude it).
The toxicity of 4PYcq and the aldehyde cq and pyridine-4-carboxamidrazone precursors were assessed using the same in vitro assay with human mononuclear leucocytes as that described above. The toxicity of related compounds, 2-hydroxybenzylidene-pyridine-2-carboxamidrazone 4PYbw and benzylidenepyridine-2-carboxamidrazone 4PYaa were also examined.

S. aboni = assay: MIC, agar dilution, multipoint inoculator; type: cell-based; details: S. aboni NCTC 6017; upper value of MIC reading
Protocol: as §1

[2] = MRSA Isolate 1, upper value of MIC reading, in µg/mL
[3] = MRSA Isolate 2, upper value of MIC reading, in µg/mL
[4] = MRSA Isolate 3, upper value of MIC reading, in µg/mL
[5] = MRSA Isolate 4, upper value of MIC reading, in µg/mL
[6] = MRSA Isolate 5, upper value of MIC reading, in µg/mL
[7] = MRSA Isolate 6, upper value of MIC reading, in µg/mL
[8] = MRSA Isolate 7, upper value of MIC reading, in µg/mL
[9] = MRSA Isolate 8, upper value of MIC reading, in µg/mL
[10] = MRSA Isolate 9, upper value of MIC reading, in µg/mL
[11] = MRSA Isolate 10, upper value of MIC reading, in µg/mL
[12] = panel of ten MRSA strains (clinical isolates)

SMILES: CN(C)CCCOc1ccc(C=NN=C(N)c2ccc3ccccc3n2)cc1 [QNds]
- MIC (S. aureus; S. aureus Cowan 1): 128 µg/mL (≈ 341 µM)
- MIC (S. aureus; S. aureus NCTC 6571): 128 µg/mL (≈ 341 µM)
- MIC (S. aureus; S. aureus NCTC 10788): 128 µg/mL (≈ 341 µM)
- MIC (E. faecium; E. faecium ACTCC 10541): 128 µg/mL (≈ 341 µM)
- MIC (E. faecium; E. faecium NCTC 7171): 64 µg/mL (≈ 170 µM)
- MIC (S. maltophilia): 256 µg/mL (≈ 682 µM)
- MIC (E. faecalis; E. faecalis EBH1): 128 µg/mL (≈ 341 µM)
- MIC (E. faecalis; E. faecalis Isolate 1): 128 µg/mL (≈ 341 µM)
- MIC (E. faecalis; E. faecalis Isolate 2): 128 µg/mL (≈ 341 µM)
- MIC (E. faecalis; E. faecalis Isolate 3): 128 µg/mL (≈ 341 µM)
- MIC (E. faecalis; E. faecalis Isolate 4): 128 µg/mL (≈ 341 µM)
- MIC (E. faecalis; E. faecalis Isolate 5): 64 µg/mL (≈ 170 µM)
- MIC (E. faecalis; E. faecalis NCTC 5957): 64 µg/mL (≈ 170 µM)
- MIC (S. haemolyticus): 256 µg/mL (≈ 682 µM)
- MIC (S. epidemisis; S. epidemisis Isolate 1): 256 µg/mL (≈ 682 µM)
- MIC (S. epidemisis; S. epidemisis NCTC 11047): 256 µg/mL (≈ 682 µM)
- MIC (MRSA; [2]): 64
- MIC (MRSA; [3]): 64
- MIC (MRSA; [4]): 64
- MIC (MRSA; [5]): 64
- MIC (MRSA; [6]): 64
- MIC (MRSA; [7]): 64
- MIC (MRSA; [8]): 64
- MIC (MRSA; [9]): 64
- MIC (MRSA; [10]): 64
- MIC (MRSA; [11]): 64
- MRSA MIC range (MRSA; [12]): 32 to 128 µg/mL

SMILES: CC(C)(C)c1ccc(/C=N/N=C(\N)c2ccccn2)cc1 [Compound 2PYae]
- direct MNL toxicity (in words) [1]: indistinguishable from the background levels
- % Leucocyte Death ([1]; 0.1 mM): 1.1 ± 1.0%

SMILES: N/C(=N\N=C\c1c2ccccc2cc2ccccc12)c1ccncc1 [Compound 4PYam]
- MIC (S. aureus; Staphylococcus aureus, 18 h, S. aureus Cowan 1, read-out: MIC): 32 µg/mL (≈ 98.6 µM)
- MIC (S. aureus; Staphylococcus aureus, NCTC6571, 18 h, S. aureus NCTC 6571, read-out: MIC): 32 µg/mL (≈ 98.6 µM)
- MIC (S. aureus; Staphylococcus aureus, NCTC10788, 18 h, S. aureus NCTC 10788, read-out: MIC): 64 µg/mL (≈ 197 µM)
- MIC (E. faecium; Enterococcus faecium, NCTC7171, 18 h, E. faecium NCTC 7171, read-out: MIC): 256 µg/mL (≈ 789 µM)
- MIC (E. faecalis; Enterococcus faecalis, 18 h, E. faecalis Isolate 1, read-out: MIC): 256 µg/mL (≈ 789 µM)
- MIC (E. faecalis; Enterococcus faecalis, 18 h, E. faecalis Isolate 2, read-out: MIC): 256 µg/mL (≈ 789 µM)
- MIC (E. faecalis; Enterococcus faecalis, 18 h, E. faecalis Isolate 4, read-out: MIC): 256 µg/mL (≈ 789 µM)
- MIC (E. faecalis; Enterococcus faecalis, 18 h, E. faecalis Isolate 5, read-out: MIC): 256 µg/mL (≈ 789 µM)
- MIC (S. haemolyticus; Staphylococcus haemolyticus, 18 h, read-out: MIC): 256 µg/mL (≈ 789 µM)
- MIC (S. aboni): 32 µg/mL (≈ 98.6 µM)
- MIC (S. epidemisis; Staphylococcus epidermidis, 18 h, S. epidemisis Isolate 1, read-out: MIC): 128 µg/mL (≈ 395 µM)
- MIC (S. epidemisis; Staphylococcus epidermidis, NCTC11047, 18 h, S. epidemisis NCTC 11047, read-out: MIC): 256 µg/mL (≈ 789 µM)
- MIC (MRSA; Staphylococcus aureus, 18 h, MRSA Isolate 1, upper value of MIC reading, read-out: MIC): 32 µg/mL (≈ 98.6 µM)
- MIC (MRSA; Staphylococcus aureus, 18 h, MRSA Isolate 2, upper value of MIC reading, read-out: MIC): 64 µg/mL (≈ 197 µM)
- MIC (MRSA; Staphylococcus aureus, 18 h, MRSA Isolate 3, upper value of MIC reading, read-out: MIC): 64 µg/mL (≈ 197 µM)
- MIC (MRSA; Staphylococcus aureus, 18 h, MRSA Isolate 4, upper value of MIC reading, read-out: MIC): 32 µg/mL (≈ 98.6 µM)
- MIC (MRSA; Staphylococcus aureus, 18 h, MRSA Isolate 5, upper value of MIC reading, read-out: MIC): 32 µg/mL (≈ 98.6 µM)
- MIC (MRSA; Staphylococcus aureus, 18 h, MRSA Isolate 6, upper value of MIC reading, read-out: MIC): 32 µg/mL (≈ 98.6 µM)
- MIC (MRSA; Staphylococcus aureus, 18 h, MRSA Isolate 7, upper value of MIC reading, read-out: MIC): 64 µg/mL (≈ 197 µM)
- MIC (MRSA; Staphylococcus aureus, 18 h, MRSA Isolate 8, upper value of MIC reading, read-out: MIC): 64 µg/mL (≈ 197 µM)
- MIC (MRSA; Staphylococcus aureus, 18 h, MRSA Isolate 9, upper value of MIC reading, read-out: MIC): 32 µg/mL (≈ 98.6 µM)
- MIC (MRSA; Staphylococcus aureus, 18 h, MRSA Isolate 10, upper value of MIC reading, read-out: MIC): 32 µg/mL (≈ 98.6 µM)
- MIC (MRSA; Staphylococcus aureus, MRSA, 18 h, panel of ten MRSA strains (clinical isolates), read-out: MRSA MIC range): 16 to 64 µg/mL (≈ 49.3 to 197 µM)

SMILES: N=C(NN=Cc1ccccc1O)c1ccccn1 [Compound 4PYbw, 2-hydroxybenzylidene-pyridine-2-carboxamidrazone]
- direct MNL toxicity (in words) [1]: only mildly toxic in comparison

SMILES: NC(=NN=Cc1cc(Br)cc([N+](=O)[O-])c1O)c1cccnc1 [Compound 3PYcl]
- MIC (S. aureus; S. aureus Cowan 1): 64 µg/mL (≈ 176 µM)
- MIC (S. aureus; S. aureus NCTC 6571): 32 µg/mL (≈ 87.9 µM)
- MIC (S. aureus; S. aureus NCTC 10788): 32 µg/mL (≈ 87.9 µM)
- MIC (E. faecium; E. faecium ACTCC 10541): 128 µg/mL (≈ 351 µM)
- MIC (E. faecium; E. faecium NCTC 7171): 256 µg/mL (≈ 703 µM)
- MIC (E. faecalis; E. faecalis EBH1): 256 µg/mL (≈ 703 µM)
- MIC (E. faecalis; E. faecalis Isolate 1): 128 µg/mL (≈ 351 µM)
- MIC (E. faecalis; E. faecalis Isolate 2): 128 µg/mL (≈ 351 µM)
- MIC (E. faecalis; E. faecalis Isolate 4): 256 µg/mL (≈ 703 µM)
- MIC (E. faecalis; E. faecalis Isolate 5): 128 µg/mL (≈ 351 µM)
- MIC (E. faecalis; E. faecalis NCTC 5957): 128 µg/mL (≈ 351 µM)
- MIC (S. haemolyticus): 128 µg/mL (≈ 351 µM)
- MIC (S. aboni): 256 µg/mL (≈ 703 µM)
- MIC (S. epidemisis; S. epidemisis Isolate 1): 256 µg/mL (≈ 703 µM)
- MIC (S. epidemisis; S. epidemisis NCTC 11047): 256 µg/mL (≈ 703 µM)
- MIC (MRSA; [2]): 64
- MIC (MRSA; [3]): 64
- MIC (MRSA; [4]): 64
- MIC (MRSA; [5]): 32
- MIC (MRSA; [6]): 32
- MIC (MRSA; [7]): 64
- MIC (MRSA; [8]): 64
- MIC (MRSA; [9]): 64
- MIC (MRSA; [10]): 64
- MIC (MRSA; [11]): 64
- MRSA MIC range (MRSA; [12]): 16 to 64 µg/mL

SMILES: NC(=NN=Cc1cc(O)c(O)cc1O)c1cccnc1 [Compound 3PYcc]
- MIC (S. aureus; S. aureus Cowan 1): 256 µg/mL (≈ 940 µM)
- MIC (S. aureus; S. aureus NCTC 6571): 256 µg/mL (≈ 940 µM)
- MIC (S. aureus; S. aureus NCTC 10788): 256 µg/mL (≈ 940 µM)
- MIC (E. faecium; E. faecium NCTC 7171): 256 µg/mL (≈ 940 µM)
- MIC (E. faecalis; E. faecalis Isolate 1): 256 µg/mL (≈ 940 µM)
- MIC (E. faecalis; E. faecalis Isolate 2): 256 µg/mL (≈ 940 µM)
- MIC (E. faecalis; E. faecalis Isolate 4): 256 µg/mL (≈ 940 µM)
- MIC (E. faecalis; E. faecalis Isolate 5): 128 µg/mL (≈ 470 µM)
- MIC (E. faecalis; E. faecalis NCTC 5957): 256 µg/mL (≈ 940 µM)
- MIC (S. aboni): 256 µg/mL (≈ 940 µM)
- MIC (S. epidemisis; S. epidemisis NCTC 11047): 32 µg/mL (≈ 118 µM)
- MIC (MRSA; [2]): 256
- MIC (MRSA; [3]): 256
- MIC (MRSA; [4]): 256
- MIC (MRSA; [5]): 256
- MIC (MRSA; [6]): 256
- MIC (MRSA; [7]): 256
- MIC (MRSA; [8]): 256
- MIC (MRSA; [9]): 256
- MIC (MRSA; [10]): 256
- MIC (MRSA; [11]): 256
- MRSA MIC range (MRSA; [12]): 128 to 256 µg/mL

SMILES: N/C(=N\N=C\c1ccccc1OCc1ccccc1)c1ccccn1 [Compound 2PYbe]
- direct MNL toxicity (in words) [1]: indistinguishable from the background levels
- % Leucocyte Death ([1]; 0.1 mM): 5.1 ± 4.1%

SMILES: CCC(C)(C)c1ccc(C=O)cc1 [af]
- % Leucocyte Death ([1]; 1 mM): 5.5 ± 3.0%
